# Source: patent US20250144267A1, “USE OF POLYSACCHARIDE DERIVATIVE” (priority 2022, published 2025)
# Entries after “also recorded” stand apart in the source; their conditions may differ.
# Experiments:
# [1] = test system: MeT-5A (human mesothelial cell line); experiment: Cell toxicity evaluation (WST assay) of HA-ABA-PMX in MeT-5A; type: cell-based; settings: PMX 10^−4 to 10 μg/mL, 48 hours
# Description: (§1) As with the HA-ABA, the cell toxicity of HA-ABA-PMX in MeT-5A (human mesothelial cell line) and AB22 cells (mouse mesothelioma cells) was evaluated by WST assay.
# (§2) Specifically, MeT-5A (human mesothelial cell line) and AB22 cells (mouse mesothelioma cells) were seeded on 24-well plates and incubated for 24 hours. The medium was then replaced with medium having HA-ABA-PMX dissolved at different PMX concentrations (10^−4 μg/mL, 10^−3 μg/mL, 10^−2 μg/mL, 10^−1 μg/mL, 1 μg/mL, 10 μg/mL). Cell viability (%) 48 hours after sample addition was then measured by WST-8 assay (Cell Counting Kit-8, Dojindo).
# (§3) For purposes of comparison as a control test, cell toxicity was also evaluated using free PMX and HA-ADH-PMX in place of HA-ABA-PMX.
# [2] = test system: AB22 cells (mouse mesothelioma cells); experiment: Cell toxicity evaluation (WST assay) of HA-ABA-PMX in AB22; type: cell-based; settings: PMX 10^−4 to 10 μg/mL, 48 hours
# Description: as §1, §2, §3
# [3] = Release test of PMX from HA-ABA-PMX (dialysis tube, PBS); type: physicochemical
# Description: The release behavior or PMX from HA-ABA-PMX at different pH values was investigated using a dialysis tube (MWCO: 1 kDa). 1 mL of an aqueous solution of the HA-ABA-PMX (1 mg/mL) obtained in Example II-2 above was placed in a dialysis tube, and shaken at 50 rpm while being incubated with 79 mL of PBS (37° C., pH=5.0, 6.0 7.4). The external solution (sustained release solution) was collected at specific time points, and new PBS was substituted for the entire amount. The drug concentration in the collected external solution (sustained release solution) was measured by UV-vis, and the release rate of the drug PMX was calculated.
# For purposes of comparison as control tests, the same release test was also performed with the HA-ABA-PMX solution replaced by an aqueous solution of PMX (0.12 mg/mL) (Free PMX), a mixed solution of HA and PMX obtained by dissolving hyaluronic acid (HA) (1 mg/mL) and PMX (0.12 mg/mL) in water (Free PMX mixed with HA), and an aqueous solution of HA-ADH-PMX having the HA bound irreversibly to the PMX by amide bonds.
# [4] = Release test of Van from AL-ABA-Van solution (dialysis membrane, PBS); type: physicochemical; settings: PBS pH 5.0, 6.0, 7.4, 37°C
# Description: The release behavior or Van from an AL-ABA-Van solution at different pH values was investigated using a dialysis membrane (pore size: 50 kDa). Specifically, 1 mL of an AL-ABA-Van solution of the AL-ABA-Van obtained in Example I-7 above dissolved in 3 mg/mL of pure water was injected into a dialysis membrane cut to 9 cm, and both ends of the dialysis membrane were tied with kite thread. This was placed in an 80 mL security container, 79 mL of PBS solution was added, and the mixture was stirred at the maximum rotational speed with a 1 cm stirrer tip in a 37° C. thermostatic tank. 1.0 mL samples were taken from the solution in the security container at specific time points (1, 2, 3, 4, 6, 8, 12, 24, and 48 hours). The sample solutions were subjected to UV-vis spectrum measurement, the drug concentration in the solutions was assayed based on absorbance, and the release rate of the drug Van (vancomycin release %) was calculated. The above measurements were conducted with pH 5.0, pH 6.0 and pH 7.4 PBS solutions (n=4 at each pH). […]
# [5] = test system: AB22 cells (mouse mesothelioma cells); experiment: Cell toxicity evaluation (WST assay) of HA-ABA-DOX in AB22; type: cell-based; settings: DOX 10^−3 to 100 μg/mL, 48 hours
# Description: As with the HA-ABA, the cell toxicity of HA-ABA-DOX in AB22 cells (mouse mesothelioma cells) was evaluated by WST assay.
# Specifically, AB22 cells (mouse mesothelioma cells) were seeded on 24-well plates and incubated for 24 hours. The medium was then replaced with media having HA-ABA-PMX dissolved at different DOX concentrations (10^−3 μg/mL, 10^−2 μg/mL, 10^−1 μg/mL, 1 μg/mL, 10 μg/mL, 100 μg/mL). Cell viability (%) 48 hours after sample addition was then measured by WST-8 assay (Cell Counting Kit-8, Dojindo).
# For purposes of comparison as a control test, cell toxicity was also evaluated using free DOX in place of HA-ABA-DOX.
molecule,measurement,setting,value
benzaldehyde-modified hyaluronic acid-pemetrexed conjugate [HA-ABA-PMX],Cell growth inhibition effect (cell viability),[1],dose-dependent cell growth inhibition effects; also recorded: reduced cell viability at lower concentrations than the free PMX and the HA-ADH-PMX
same,Cell growth inhibition effect (cell viability),[2],dose-dependent cell growth inhibition effects; also recorded: reduced cell viability at lower concentrations than the free PMX and the HA-ADH-PMX
same,PMX released (cumulative drug release),"[3]; PBS pH 5.0, 37°C, after 24 hours",more than 80%
same,PMX not released,"[3]; PBS pH 7.4, 37°C, after 24 hours",40%
"Nc1nc2[nH]cc(CCc3ccc(C(=O)N[C@@H](CCC(=O)O)C(=O)O)cc3)c2c(=O)[nH]1 [Free PMX, Pemetrexed, reference compound]",Cell growth inhibition effect (cell viability),[1],dose-dependent cell growth inhibition effects
same,Cell growth inhibition effect (cell viability),[2],dose-dependent cell growth inhibition effects
same,PMX release behavior,"[3]; PBS, 37°C",almost all of the PMX was rapidly released within 2 hours
"CN[C@H](CC(C)C)C(=O)N[C@H]1C(=O)N[C@@H](CC(N)=O)C(=O)N[C@H]2C(=O)N[C@H]3C(=O)N[C@H](C(=O)N[C@H](C(=O)O)c4cc(O)cc(O)c4-c4cc3ccc4O)[C@H](O)c3ccc(c(Cl)c3)Oc3cc2cc(c3O[C@@H]2O[C@H](CO)[C@@H](O)[C@H](O)[C@H]2O[C@H]2C[C@](C)(N)[C@H](O)[C@H](C)O2)Oc2ccc(cc2Cl)[C@H]1O [Van, Vancomycin]",Van release behavior,[4],almost all of the Van was released in the first 10 hours
"COc1cccc2c1C(=O)c1c(O)c3c(c(O)c1C2=O)C[C@@](O)(C(=O)CO)C[C@@H]3O[C@H]1C[C@H](N)[C@H](O)[C@H](C)O1 [free DOX, Doxorubicin]",Cell growth inhibition effect (cell viability),[5],dose-dependent cell growth inhibition effects on AB22
